Source: patent publication US12564609B2, “Hematopoietic stem cell engraftment with a combination of agents” (The Board of Trustees of the Leland Stanford Junior …, priority 2020, dated 2026)

System: hematopoietic stem and progenitor cells
Experiment: In vivo depletion of blood, spleen and bone marrow cells by AZA
Parameters: species or system C57BL/6 mice
Conditions: AZA 5 mg/kg/d for 5 days
Description: A. Schematic of treatment protocol. C57BL/6 mice were injected with 5-Azacytidine (AZA) in dose 5 mg/kg/d for 5 consecutive days. Peripheral blood, bone marrow (BM) and spleen were analyzed on days 6, 10 and 15 and 20 after start AZA treatment. B. Peripheral blood cell counts in untreated mice as compared to AZA-treated mice at day 6, 10 and 20 following AZA treatment. Hemoglobin (Hb); white blood cells (WBC). C. Total live cells in bone marrow (BM) and spleen of untreated mice and AZA-treated mice at day 6, 10, 15 and 20 after start AZA treatment. D. Hematoxylin and eosin staining of bone marrow section from mouse femur at day 6 after treatment with AZA 5 mg/kg/d for 5 days as compared to untreated control. Magnification 100 μm. E. Representative flow cytometric analysis of the hematopoietic stem and progenitor cell (HSPC) compartment in the BM of untreated and AZA-treated mice at day 6, 10, 15 and 20. […] Lin^−Sca1^+ c-Kit^+ cells (LSK), multipotent progenitors (MPP), long-term hematopoietic stem cells (LT-HSC), short-term HSC (ST-HSC). F. Absolute number of the different HSPC compartments at day 6, 10, 15 and 20 after start of AZA treatment as compared to untreated control mice. Lin^−Sca1^+c-Kit^+ (LSK); LSKCD150^+CD48^− (LT-HSC), LSKCD150^−CD48^− (ST-HSC), LSKCD150^+CD48^+ (MPP2), LSKCD150^−CD48^+Flt3^− (MPP3), LSKCD150^−CD48^+Flt3^+ (MPP4). Data in (B), (C) and (F) represent mean±SD (n=4 per group per timepoint). Statistics were calculated with Mann-Whitney test (*P<0.05).
Mice. C57BL/6 (B6) mice (H-2^b, Thy1.1, CD45.1/CD45.2) were recipients and B6 mice (H-2^b, Thy1.1, CD45.1) were donors for the congenic transplant experiments. BALB.B (H-2^b, Thy1.2, CD45.2) mice were used as recipients and B6 mice (H-2^b, Thy1.1, CD45.1) as donors for […] (allogeneic) transplant experiments. Recipients were >8 weeks old and donors were 8-12 weeks old at timepoint of transplantation. B6 (H-2^b, Thy1.1, CD45.2) mice were used for in vivo depletion studies. Mice were bred and maintained under pathogen free conditions at the Stanford University Research Animal Facility. All experiments were performed under a protocol approved by the Stanford Administrative Panel on Laboratory Animal Care.
In vivo administration of therapeutic agents and cytokines. Anti-mouse CD117 mAbs, clone ACK2 (BioXcell) and 2B8 (BioXcell), were injected retroorbital as a single dose of 500 μg following intraperitoneal administration of Diphenhydramine (Benadryl). Anti CD4 (clone GK1.5, BioXcell) and anti-CD8 (clone YTS169.4, BioXcell) were administered intraperitoneally at a dose of 100 μg in 100 μl phosphate-buffered saline (PBS). […] Before each injection, AZA was thawed for 10-15 min at room temperature (RT), resuspended in PBS and administered intraperitoneally in 100 μl. Recombinant murine SCF (PeproTech), dissolved in deionized water to concentration of 10 μg/ml, was injected intraperitoneally at the amount of 1 μg/day.
Flow cytometry. Cells were stained for surface markers and incubated at RT in the dark for 20 min.
Bone marrow and spleen cell preparation for analysis. Mice were euthanized and bone marrow (hips, femurs, tibia, spine) and spleen were harvested. Bones were crushed in PBS+2% bovine calf serum (BCS) into single cell suspensions and filtered through 70-μm filter (Falcon). Spleens were mashed direct in 70-μm filter (Falcon). RBC lysis was performed with ACK lysis buffer for 10 min at RT. Cells were rinsed, filtered again and counted on a Countess automated cell counter (Invitrogen).
Complete blood cell count. 20 μl of whole blood was collected via the tail vein and complete blood counts (CBC) were conducted using Heska HemaTrue Veterinary Hematology Analyzer (Heska).

Nc1ncn([C@@H]2O[C@H](CO)[C@@H](O)[C@H]2O)c(=O)n1 [AZA, 5-Azacytidine]
rebound of splenic myeloid cells to normal levels: ≤ 10 days | recovery of BM B cells: > 15 days | recovery of all blood subsets to normal range values: ≤ 20 days | recovery of overall BM cellularity: ≤ 10 days | recovery of the ST-HSC fraction in BM: > 20 days | nadir of MPP4 and common lymphoid progenitors (CLP) (BM): 10 days | recovery of CMP and GMP (BM): > 15 days | recovery of MEP (BM): ≤ 10 days | recovery of MPP4 and CLP (BM): ≤ 20 days | myeloid-biased multipotent progenitors MPP2 and MPP3 after BM depletion of HSC (by day 6): rapid expansion | depletion of common myeloid progenitors (CMP) (by day 6, BM): > 25 fold | depletion of granulocyte-macrophage progenitors (GMP) (by day 6, BM): > 18 fold | depletion of megakaryocyte-erythrocyte progenitors (MEP) (by day 6, BM): > 11 fold | reduction of LT-HSC in BM at nadir (day 6): 15 fold | reduction of ST-HSC in BM at nadir (day 6): 24 fold | splenic myeloid cells (day 6): significantly reduced | overall BM cellularity decreased (day 6, p value=0.0286): 80 % from baseline | maximal B cell (CD19) depletion in BM (day 10): > 30 fold | B-cell development in the bone marrow (Hardy fractions) (days 6, 10, 15 and 20): maturation block at Fraction D and E | reduction of granulocytes in blood (peripheral blood): ~4 fold | day of lowest blood values (Hb, WBC, granulocytes, lymphocytes, monocytes) (days after initiation of AZA): 10 days
